The numbers were not newly measured in PMC9814429, “First-in-human phase I dose-escalation and dose-expansion trial of the selective MEK inhibitor HL-085 in patients with advanced melanoma harboring NRAS mutations” (BMC Medicine, 2023), which cites them from elsewhere.

The test system of this series is NRAS mutant melanoma. The arrangement: method as in PMID 28284557. The conditions noted are these: phase 3, NRAS mutant melanoma.

Regarding `Cn1cnc2c(F)c(Nc3ccc(Br)cc3F)c(C(=O)NOCCO)cc21` [binimetinib], the DCR is listed as 58%, the ORR is listed as 15% and the PFS is recorded as 2.8 months.
